Patent US20090233871A1, “Complexed polypeptide and adjuvant for improved vaccines” (priority 2004, published 2009)

Experiments:
IFNγ-secreting CD8+ CTLs = experiment: primary IFNγ Elispot of CD8+ CTLs from mice primed with peptide plus CpG; details: 100 μg polypeptide + 100 μg CpG + 10 μg MPL-AF s.c., spleens day 10
[1] = tested on: CD8+ CTLs, T2 stimulators pulsed with polypeptide; type: in vivo, HLA-A2 transgenic mice; details: 100 μg CpG, equimolar CpG:peptide, s.c., day 10 (FIG. 8)

Sequence: LTFNYRNL (Synthetically generated peptide) [H60]
- frequencies of IFNγ-secreting CTLs (priming efficiency) (IFNγ-secreting CD8+ CTLs): most inefficient

Sequence: KTWGQYWQV
- priming on addition of a KCSRNR amino acid sequence vs native polypeptide [1]: increased priming
